Laboratory results: paper PMC5760710, “The evolution of substrate discrimination in macrolide antibiotic resistance enzymes” (Nature Communications, 2018)
Converted amounts (≈) assume the structure as drawn.

Experiments:
[1] = system: T1, E. coli BW25113 ΔbamBΔtolC; assay: microbe, parasite or virus in culture; conditions: Escherichia coli, BW25113, 24 h; empty vector
T1 construct: BW25113 ΔbamBΔtolC empty vector pGDP4
Experimental: (§1) mphB was codon optimized, synthetized as a gBlock (IDT) and cloned into pET28a with an N-terminal histidine tag. The codon optimized mphB sequence is in Supplementary Table 17. mphI was previously cloned into pET22b[36]. pGDP4 is a derivative of pET28a with the multiple-cloning site under the control of the constitutive lac promoter. mphI was subcloned into pGDP4 using the XbaI and XhoI restriction sites. E. coli was routinely cultured on LB-Lennox (Bioshop) at 37 °C overnight, and either 100 µg mL^−1 ampicillin or 50 µg mL^−1 kanamycin was used for plasmid selection. E. coli TOP10 (Invitrogen) was used for routine cloning experiments and susceptibility testing of mphs cloned into pGDP4. E. coli BL21(DE3) (Stratagene, USA)was used for protein overexpression experiments. E. coli BW25113 ΔbamBΔtolC is an antibiotic hypersensitive, and was used for susceptibility testing of Mphs cloning into pGDP4. Antibiotic susceptibility testing was performed according to the Clinical and Laboratory Standards Institute guidelines[74] for determining minimal inhibitory concentration (MIC) in 96-well plates (Sarstedt, Germany) in duplicate. MIC values were reproducible. A saline suspension of OD600 of 0.1 was made from 2–3 colonies of a fresh overnight, and diluted 1:200 into Mueller-Hinton Broth (BD Biosciences). […] Susceptibility assays were performed at least two independent times.

MphB = target: T2, MphB (Escherichia coli, UniProt A0A0H3EUF3); assay: biochemical; parameters: PK/LDH-coupled continuous assay of macrolide phosphorylation; steady-state kinetics, NADH absorbance; conditions: substrate inhibition
T2 construct: codon-optimized gene, N-terminal His tag in pET28a, expressed in E. coli BL21(DE3), Ni-NTA purified
Experimental: (§2) Steady-state kinetics for Mphs were measured using the continuous PK/LDH-coupled assay[27],[32],[36],[71]. Reactions were performed in 96-well plates (Nunc, Thermo Scientific) using Spectramax Plus384 (Molecular Devices) in duplicate. Individual reactions were 100 µL and contained 50 mM HEPES pH 7.5, 40 mM KCl, 10 mM MgCl2, 0.2 mM NADH, 3.5 mM PEP, and 4.8 U PK/LDH (pyruvate kinase/lactate dehydrogenase). […] For determining the Km for macrolides, GTP was maintained at 200 µM and macrolides were varied between 0.49 µM and 1000 µM. Enzyme efficiency varied considerably between substrates, and therefore some enzymes were used at different concentrations depending on the substrate in order to produce a linear range suitable for Km determination. These concentrations were as follows; MphB 140 nM (most substrates), MphB 36 nM (josamycin), MphI 45 nM (descladinose macrolides), MphI 1.44 µM (C3 cladinose macrolides), Azi_1.1 90 nM (all substrates), Ery_1 (all substrates), MphK 680 nM (all substrates), MphIS111R/T166E/P211L 90 nM (descladinose macrolides), MphIS111R/T166E/P211L 1.43 µM (C3 cladinose macrolides), MphIM40A/S111R/T166E 22 nM (descladinose macrolides), MphIM40A/S111R/T166E 430 nM (C3 cladinose macrolides), MphIS111R/T166E 22 nM (descladinose macrolides), MphIS111R/T166E 1.43 µM (C3 cladinose macrolides). Enzyme kinetics experiments were performed at least two independent times. Steady-state kinetics of Mphs

MphK = target: T3, MphK (Bacillus subtilis, UniProt P42242); parameters: PK/LDH-coupled continuous assay of macrolide phosphorylation; steady-state kinetics, NADH absorbance; conditions: substrate inhibition
T3 construct: full-length, His-tagged, expressed in E. coli BL21(DE3), Ni-NTA purified
T3 sequence (P42242 whole entry): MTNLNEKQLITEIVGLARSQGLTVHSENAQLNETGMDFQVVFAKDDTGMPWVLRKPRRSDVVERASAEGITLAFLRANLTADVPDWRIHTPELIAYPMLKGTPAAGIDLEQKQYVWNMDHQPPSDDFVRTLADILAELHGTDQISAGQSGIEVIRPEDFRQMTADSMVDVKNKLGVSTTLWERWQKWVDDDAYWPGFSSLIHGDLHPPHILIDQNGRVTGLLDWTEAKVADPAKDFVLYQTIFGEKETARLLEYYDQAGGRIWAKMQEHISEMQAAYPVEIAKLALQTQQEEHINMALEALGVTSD
Experimental: as §2, with “Steady-state kinetics of Mphs” left out

[2] = system: T4, E. coli BW25113 ΔbamBΔtolC (vector); assay: microbe, parasite or virus in culture; parameters: CLSI broth microdilution MIC in Mueller-Hinton broth; conditions: Escherichia coli, BW25113, 24 h
T4 construct: BW25113 ΔbamBΔtolC, empty vector
Experimental: as §1

Structure (SMILES) | MIC [1] [mg/L] | Ki (MphB) [µM] | Ki (MphK) [µM] | MIC [2] [mg/L]
CO[C@@H]1[C@@H](O[C@@H]2O[C@H](C)[C@@H](O[C@H]3C[C@@](C)(O)[C@@H](O)[C@H](C)O3)[C@H](N(C)C)[C@H]2O)[C@@H](CC=O)C[C@@H](C)[C@@H](O[C@H]2CC[C@H](N(C)C)[C@@H](C)O2)/C=C/C=C/C[C@@H](C)OC(=O)C[C@H]1O [Spiramycin] | 2 (≈ 2.37 µM) | 39 ± 16 | 750 ± 160 | –
CO[C@@H]1[C@@H](O[C@@H]2O[C@H](C)[C@@H](O[C@H]3C[C@@](C)(O)[C@@H](OC(=O)CC(C)C)[C@H](C)O3)[C@H](N(C)C)[C@H]2O)[C@@H](CC=O)C[C@@H](C)[C@@H](O)/C=C/C=C/C[C@@H](C)OC(=O)C[C@H]1OC(C)=O [josamycin] | – | – | – | 2 to 4 (≈ 2.42 to 4.83 µM)
